Experimental data published in article PMC5546936, “CLE42 binding induces PXL2 interaction with SERK2” (Protein & Cell, 2017).
Where a SMILES comes first, the peptide text is derived from it. Where no end group is shown, it is not given here. [ ]: non-standard residue; d: D form. Hyp = O=C(O)[C@@H]1C[C@@H](O)CN1

Columns and labels:
[1] = molecular target: T1, PXL2LRR (extracellular LRR domain protein of PXL2) (Arabidopsis thaliana, UniProt Q9M0G7); assay: biochemical; format: binding
T1 construct: The LRR domain of PXL2 (residues 1-633, PXL2LRR) from Arabidopsis with an engineered; 6xHis (C); made in house; host or cells: High Five insect cells (baculovirus, pFastBac 1)
Experimental: (C) Measurement of the binding affinity between PXL2^LRR and CLE42 by ITC. Top panel: twenty injections of CLE42 solution were titrated into PXL2^LRR in the ITC cell. The area of each injection peak corresponds to the total heat released for that injection. Bottom panel: the binding isotherm for PXL2^LRR-CLE42 interaction. The integrated heat is plotted against the molar ratio between CLE42 and PXL2^LRR. […] The assay was performed as described in (C).

[2] = molecular target: extracellular LRR domain protein of PXL2 (PXL2^LRR) (Arabidopsis thaliana); assay: ITC; twenty injections of peptide solution titrated into PXL2^LRR in the ITC cell

T1 sequence (Q9M0G7 24-633): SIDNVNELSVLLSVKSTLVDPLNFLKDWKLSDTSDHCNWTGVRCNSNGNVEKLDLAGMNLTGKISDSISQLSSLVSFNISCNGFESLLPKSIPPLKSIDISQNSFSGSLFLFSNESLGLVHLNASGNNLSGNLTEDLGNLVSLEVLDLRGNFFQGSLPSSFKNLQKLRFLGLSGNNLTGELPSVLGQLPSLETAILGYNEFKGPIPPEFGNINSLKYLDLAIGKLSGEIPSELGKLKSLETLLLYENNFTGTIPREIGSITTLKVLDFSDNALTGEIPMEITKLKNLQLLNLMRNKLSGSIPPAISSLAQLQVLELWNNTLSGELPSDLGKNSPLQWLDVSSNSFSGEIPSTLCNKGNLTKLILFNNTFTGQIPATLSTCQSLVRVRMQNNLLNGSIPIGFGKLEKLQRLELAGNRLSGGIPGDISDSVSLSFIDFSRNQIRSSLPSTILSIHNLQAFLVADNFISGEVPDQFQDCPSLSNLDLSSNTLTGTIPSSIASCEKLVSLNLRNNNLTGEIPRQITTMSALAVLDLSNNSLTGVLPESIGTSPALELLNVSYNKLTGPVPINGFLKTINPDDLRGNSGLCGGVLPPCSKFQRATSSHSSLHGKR

Molecule | Kd [1] [µM] | Kd [2] [µM] | other results
CC[C@H](C)[C@H](NC(=O)[C@@H]1CCCN1C(=O)[C@H](CC(N)=O)NC(=O)[C@@H]1C[C@@H](O)CN1C(=O)CNC(=O)[C@H](CO)NC(=O)[C@@H]1C[C@@H](O)CN1C(=O)[C@@H](NC(=O)[C@H](CCC(=O)O)NC(=O)[C@@H](N)Cc1c[nH]cn1)C(C)C)C(=O)N[C@@H](CO)C(=O)N[C@@H](CC(N)=O)C(=O)O [CLE41, His-Glu-Val-Hyp-Ser-Gly-Hyp-Asn-Pro-Ile-Ser-Asn] (H-HEV[Hyp]SG[Hyp]NPISN-OH) | 10 | – | –
CC[C@H](C)[C@H](NC(=O)[C@@H]1CCCN1C(=O)[C@H](CC(N)=O)NC(=O)[C@@H]1C[C@@H](O)CN1C(=O)CNC(=O)[C@H](CO)NC(=O)[C@@H]1C[C@@H](O)CN1C(=O)[C@@H](NC(=O)CNC(=O)[C@@H](N)Cc1c[nH]cn1)C(C)C)C(=O)N[C@@H](CO)C(=O)N[C@@H](CC(N)=O)C(=O)O [CLE42, His-Gly-Val-Hyp-Ser-Gly-Hyp-Asn-Pro-Ile-Ser-Asn] (H-HGV[Hyp]SG[Hyp]NPISN-OH) | 2.75 | – | –
RLV[Hyp]SG[Hyp]NPLHH [CLE13, negative control] | – | – | interaction with PXL2LRR by ITC ([1]; ITC200, 25 °C, 10 mM Bis-Tris pH 6.0, 100 mM NaCl, approximately 0.5 mM peptide, 0.05 mM PXL2LRR, repeated at least three times, negative control): no detectable interaction
HEV[Hyp]SG[Hyp]NPISN [CLE41/44 or TDIF (tracheary elements differentiation inhibitory factor)] | – | 10 | –
HGV[Hyp]SG[Hyp]NPISN [CLE42] | – | 2.75 | –
